# Data reported in patent US11382328B2, “Rapid drug discovery methods for pathogen inactivation” (priority 2019, dated 2022).
# System: E. coli strain W3110
# Assay: Synergy assays: Biolog chemical sensitivity panels with Group IB metal, coefficient of drug interaction (CDI) from relative growth
# Assay type: cell-based
# Details: for CDI (coefficient of drug interaction), copper mixed with biocide: Copper (mM) section; for CDI (coefficient of drug interaction), gold + biocide: Gold (μM)
# [1] = 1st of 3 copper concentrations (value not shown), 1st of four biocide concentrations
# [2] = 1st of 3 copper concentrations (value not shown), 2nd of four biocide concentrations
# [3] = 1st of 3 copper concentrations (value not shown), 3rd of four biocide concentrations
# [4] = 1st of 3 copper concentrations (value not shown), 4th of four biocide concentrations
# [5] = 2nd of 3 copper concentrations (value not shown), 1st of four biocide concentrations
# [6] = 2nd of 3 copper concentrations (value not shown), 2nd of four biocide concentrations
# [7] = 2nd of 3 copper concentrations (value not shown), 3rd of four biocide concentrations
# [8] = 2nd of 3 copper concentrations (value not shown), 4th of four biocide concentrations
# [9] = 3rd of 3 copper concentrations (value not shown), 1st of four biocide concentrations
# [10] = 3rd of 3 copper concentrations (value not shown), 2nd of four biocide concentrations
# [11] = 3rd of 3 copper concentrations (value not shown), 3rd of four biocide concentrations
# [12] = 3rd of 3 copper concentrations (value not shown), 4th of four biocide concentrations
# [13] = Gold section of Table 5, first of three gold concentrations (μM, value not given), biocide concentration 1 of 4
# [14] = Gold section of Table 5, first of three gold concentrations (μM, value not given), biocide concentration 2 of 4
# [15] = Gold section of Table 5, first of three gold concentrations (μM, value not given), biocide concentration 3 of 4
# [16] = Gold section of Table 5, first of three gold concentrations (μM, value not given), biocide concentration 4 of 4
# [17] = Gold section of Table 5, second of three gold concentrations (μM, value not given), biocide concentration 1 of 4
# [18] = Gold section of Table 5, second of three gold concentrations (μM, value not given), biocide concentration 2 of 4
# [19] = Gold section of Table 5, second of three gold concentrations (μM, value not given), biocide concentration 3 of 4
# [20] = Gold section of Table 5, second of three gold concentrations (μM, value not given), biocide concentration 4 of 4
# [21] = Gold section of Table 5, third of three gold concentrations (μM, value not given), biocide concentration 1 of 4
# [22] = Gold section of Table 5, third of three gold concentrations (μM, value not given), biocide concentration 2 of 4
# [23] = Gold section of Table 5, third of three gold concentrations (μM, value not given), biocide concentration 3 of 4
# [24] = Gold section of Table 5, third of three gold concentrations (μM, value not given), biocide concentration 4 of 4
# [25] = Silver 0.5 μM, biocide concentration 2 of 4
# [26] = Silver 0.5 μM, biocide concentration 3 of 4
# [27] = Silver 0.5 μM, biocide concentration 4 of 4
# [28] = Silver 1.0 μM, biocide concentration 2 of 4
# [29] = Silver 1.0 μM, biocide concentration 3 of 4
# [30] = Silver 1.0 μM, biocide concentration 4 of 4
# [31] = Silver 5.0 μM, biocide concentration 2 of 4
# [32] = Silver 5.0 μM, biocide concentration 3 of 4
# [33] = Silver 5.0 μM, biocide concentration 4 of 4
# [34] = Silver 0.5 μM, 1st of four biocide concentrations, E. coli
# [35] = Silver 0.5 μM, 2nd of four biocide concentrations, E. coli
# [36] = Silver 0.5 μM, 3rd of four biocide concentrations, E. coli
# [37] = Silver 0.5 μM, 4th of four biocide concentrations, E. coli
# [38] = Silver 1.0 μM, 1st of four biocide concentrations, E. coli
# [39] = Silver 1.0 μM, 2nd of four biocide concentrations, E. coli
# [40] = Silver 1.0 μM, 3rd of four biocide concentrations, E. coli
# [41] = Silver 1.0 μM, 4th of four biocide concentrations, E. coli
# [42] = Silver 5.0 μM, 1st of four biocide concentrations, E. coli
# [43] = Silver 5.0 μM, 2nd of four biocide concentrations, E. coli
# [44] = Silver 5.0 μM, 3rd of four biocide concentrations, E. coli
# [45] = Silver 5.0 μM, 4th of four biocide concentrations, E. coli
molecule,measurement,setting,value
CN(C)C(=O)/N=N/C(=O)N(C)C [diamide],"CDI (coefficient of drug interaction), copper mixed with biocide",[1],1.02
same,"CDI (coefficient of drug interaction), copper mixed with biocide",[2],0.98
same,"CDI (coefficient of drug interaction), copper mixed with biocide",[3],0.96
same,"CDI (coefficient of drug interaction), copper mixed with biocide",[4],0.99
same,"CDI (coefficient of drug interaction), copper mixed with biocide",[5],0.78
same,"CDI (coefficient of drug interaction), copper mixed with biocide",[6],0.72
same,"CDI (coefficient of drug interaction), copper mixed with biocide",[7],Tox
same,"CDI (coefficient of drug interaction), copper mixed with biocide",[8],Tox
same,"CDI (coefficient of drug interaction), copper mixed with biocide",[9],0.52
same,"CDI (coefficient of drug interaction), copper mixed with biocide",[10],0.51
same,"CDI (coefficient of drug interaction), copper mixed with biocide",[11],0.52
same,"CDI (coefficient of drug interaction), copper mixed with biocide",[12],0.56
same,CDI (coefficient of drug interaction),[13],0.99
same,CDI (coefficient of drug interaction),[14],0.86
same,CDI (coefficient of drug interaction),[15],Tox
same,CDI (coefficient of drug interaction),[16],Tox
same,CDI (coefficient of drug interaction),[17],0.98
same,CDI (coefficient of drug interaction),[18],0.89
same,CDI (coefficient of drug interaction),[19],Tox
same,CDI (coefficient of drug interaction),[20],Tox
same,CDI (coefficient of drug interaction),[21],0.98
same,CDI (coefficient of drug interaction),[22],0.93
same,CDI (coefficient of drug interaction),[23],Tox
same,CDI (coefficient of drug interaction),[24],Tox
same,CDI,"Silver 0.5 μM, biocide concentration 1 of 4",1.19
same,CDI,[25],1.07
same,CDI,[26],Tox
same,CDI,[27],Tox
same,CDI,"Silver 1.0 μM, biocide concentration 1 of 4",1.01
same,CDI,[28],0.90
same,CDI,[29],Tox
same,CDI,[30],Tox
same,CDI,"Silver 5.0 μM, biocide concentration 1 of 4",0.97
same,CDI,[31],0.40
same,CDI,[32],Tox
same,CDI,[33],Tox
phleomycin,"CDI (coefficient of drug interaction), copper mixed with biocide",[1],0.99
same,"CDI (coefficient of drug interaction), copper mixed with biocide",[2],1.27
same,"CDI (coefficient of drug interaction), copper mixed with biocide",[3],Tox
same,"CDI (coefficient of drug interaction), copper mixed with biocide",[4],Tox
same,"CDI (coefficient of drug interaction), copper mixed with biocide",[5],1.09
same,"CDI (coefficient of drug interaction), copper mixed with biocide",[6],1.19
same,"CDI (coefficient of drug interaction), copper mixed with biocide",[7],Tox
same,"CDI (coefficient of drug interaction), copper mixed with biocide",[8],Tox
same,"CDI (coefficient of drug interaction), copper mixed with biocide",[9],0.99
same,"CDI (coefficient of drug interaction), copper mixed with biocide",[10],0.96
same,"CDI (coefficient of drug interaction), copper mixed with biocide",[11],Tox
same,"CDI (coefficient of drug interaction), copper mixed with biocide",[12],Tox
same,CDI (coefficient of drug interaction),[13],0.98
same,CDI (coefficient of drug interaction),[14],1.06
same,CDI (coefficient of drug interaction),[16],1.33
same,CDI (coefficient of drug interaction),[18],1.03
same,CDI (coefficient of drug interaction),[19],0.88
same,CDI (coefficient of drug interaction),[20],0.87
same,CDI (coefficient of drug interaction),[21],0.99
same,CDI (coefficient of drug interaction),[22],0.96
same,CDI (coefficient of drug interaction),[23],0.92
same,CDI (coefficient of drug interaction),[24],1.29
same,"CDI (coefficient of drug interaction), silver + biocide",[34],0.81
same,"CDI (coefficient of drug interaction), silver + biocide",[35],0.61
same,"CDI (coefficient of drug interaction), silver + biocide",[36],0.68
same,"CDI (coefficient of drug interaction), silver + biocide",[37],Tox
same,"CDI (coefficient of drug interaction), silver + biocide",[38],0.89
same,"CDI (coefficient of drug interaction), silver + biocide",[39],0.81
same,"CDI (coefficient of drug interaction), silver + biocide",[40],0.81
same,"CDI (coefficient of drug interaction), silver + biocide",[41],Tox
same,"CDI (coefficient of drug interaction), silver + biocide",[42],1.32
same,"CDI (coefficient of drug interaction), silver + biocide",[43],1.43
same,"CDI (coefficient of drug interaction), silver + biocide",[44],1.37
same,"CDI (coefficient of drug interaction), silver + biocide",[45],Tox
CC1=C(C(=O)Nc2ccccc2)S(=O)(=O)CCO1 [Oxycarboxin],CDI (coefficient of drug interaction),"Copper (mM), 1st of 3 copper concentrations (head line not shown), biocide concentration 3 of 4, E. coli",Tox
same,CDI (coefficient of drug interaction),"Copper (mM), 1st of 3 copper concentrations (head line not shown), biocide concentration 4 of 4, E. coli",Tox
same,CDI (coefficient of drug interaction),"Copper (mM), 2nd of 3 copper concentrations (head line not shown), biocide concentration 3 of 4, E. coli",Tox
same,CDI (coefficient of drug interaction),"Copper (mM), 2nd of 3 copper concentrations (head line not shown), biocide concentration 4 of 4, E. coli",Tox
same,CDI (coefficient of drug interaction),"Copper (mM), 3rd of 3 copper concentrations (head line not shown), biocide concentration 3 of 4, E. coli",Tox
same,CDI (coefficient of drug interaction),"Copper (mM), 3rd of 3 copper concentrations (head line not shown), biocide concentration 4 of 4, E. coli",Tox
same,"CDI (coefficient of drug interaction), gold + biocide","first of 3 gold concentrations, biocide concentration 2 of 4",Tox
same,"CDI (coefficient of drug interaction), gold + biocide","first of 3 gold concentrations, biocide concentration 3 of 4",Tox
same,"CDI (coefficient of drug interaction), gold + biocide","first of 3 gold concentrations, biocide concentration 4 of 4",Tox
same,"CDI (coefficient of drug interaction), gold + biocide","second of 3 gold concentrations, biocide concentration 2 of 4",Tox
same,"CDI (coefficient of drug interaction), gold + biocide","second of 3 gold concentrations, biocide concentration 3 of 4",Tox
same,"CDI (coefficient of drug interaction), gold + biocide","second of 3 gold concentrations, biocide concentration 4 of 4",Tox
same,"CDI (coefficient of drug interaction), gold + biocide","third of 3 gold concentrations, biocide concentration 2 of 4",Tox
same,"CDI (coefficient of drug interaction), gold + biocide","third of 3 gold concentrations, biocide concentration 3 of 4",Tox
same,"CDI (coefficient of drug interaction), gold + biocide","third of 3 gold concentrations, biocide concentration 4 of 4",Tox
same,CDI,[25],Tox
same,CDI,[26],Tox
same,CDI,[27],Tox
same,CDI,[28],Tox
same,CDI,[29],Tox
same,CDI,[30],Tox
same,CDI,[31],Tox
same,CDI,[32],Tox
same,CDI,[33],Tox
NCC[C@H](O)C(=O)N[C@@H]1C[C@H](N)[C@@H](O[C@H]2O[C@H](CN)[C@@H](O)[C@H](O)[C@H]2O)[C@H](O)[C@H]1O[C@H]1O[C@H](CO)[C@@H](O)[C@H](N)[C@H]1O [amikacin],cell toxicity / growth curves with and without silver,,enhanced cell toxicity
protamine sulfate,"CDI (coefficient of drug interaction), copper mixed with biocide",[1],0.79
same,"CDI (coefficient of drug interaction), copper mixed with biocide",[2],Tox
same,"CDI (coefficient of drug interaction), copper mixed with biocide",[3],Tox
same,"CDI (coefficient of drug interaction), copper mixed with biocide",[4],Tox
same,"CDI (coefficient of drug interaction), copper mixed with biocide",[5],1.09
same,"CDI (coefficient of drug interaction), copper mixed with biocide",[6],1.26
same,"CDI (coefficient of drug interaction), copper mixed with biocide",[7],Tox
same,"CDI (coefficient of drug interaction), copper mixed with biocide",[8],Tox
same,"CDI (coefficient of drug interaction), copper mixed with biocide",[9],0.56
same,"CDI (coefficient of drug interaction), copper mixed with biocide",[10],Tox
same,"CDI (coefficient of drug interaction), copper mixed with biocide",[11],Tox
same,"CDI (coefficient of drug interaction), copper mixed with biocide",[12],Tox
same,CDI (coefficient of drug interaction),[14],0.96
same,CDI (coefficient of drug interaction),[15],0.49
same,CDI (coefficient of drug interaction),[16],Tox
same,CDI (coefficient of drug interaction),[17],0.99
same,CDI (coefficient of drug interaction),[18],0.94
same,CDI (coefficient of drug interaction),[19],2.22
same,CDI (coefficient of drug interaction),[20],Tox
same,CDI (coefficient of drug interaction),[21],0.92
same,CDI (coefficient of drug interaction),[22],1.09
same,CDI (coefficient of drug interaction),[23],1.56
same,CDI (coefficient of drug interaction),[24],Tox
same,"CDI (coefficient of drug interaction), silver + biocide",[34],1.10
same,"CDI (coefficient of drug interaction), silver + biocide",[35],1.15
same,"CDI (coefficient of drug interaction), silver + biocide",[36],Tox
same,"CDI (coefficient of drug interaction), silver + biocide",[37],Tox
same,"CDI (coefficient of drug interaction), silver + biocide",[38],0.95
same,"CDI (coefficient of drug interaction), silver + biocide",[39],1.00
same,"CDI (coefficient of drug interaction), silver + biocide",[40],Tox
same,"CDI (coefficient of drug interaction), silver + biocide",[41],Tox
same,"CDI (coefficient of drug interaction), silver + biocide",[42],0.84
same,"CDI (coefficient of drug interaction), silver + biocide",[43],0.90
same,"CDI (coefficient of drug interaction), silver + biocide",[44],Tox
same,"CDI (coefficient of drug interaction), silver + biocide",[45],Tox
